Measurements reported in patent US11957687B2 (REGENERON PHARMACEUTICALS, INC., priority 2019, dated 2024).

Legend:
HSD17B2 = HSD17B2 (Homo sapiens (Human), UniProt P37059); assay: HSD17B2 enzymatic blocking assay; type: biochemical; settings: 1.8 μM Estradiol, 650 μM NAD; read-out: Inhibition of HSD17B2 IC50
Method in brief: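 Mammalian-expressed enzyme at 2 ng/μL in 50 mM Tris-HCl pH 7.5 with detergents/BSA, preincubated 15 min at 20° C. with compound (10-point titration). Reaction with 1.8 μM estradiol and 650 μM NAD ran 45 min at 20° C.; NADH measured by NADH-Glo luminescence and IC50 derived.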

HSD17B13 = HSD17B13 (Homo sapiens (Human), UniProt Q7Z5P4); assay: HSD17B13 enzymatic inhibition assay (150 nM or 50 nM HSD17B13); type: biochemical; settings: 50 nM HSD17B13; read-out: Inhibition of 50 nM of HSD17B13 IC50
HSD17B1 = HSD17B1 (Homo sapiens (Human), UniProt P14061); assay: HSD17B1 enzymatic blocking assay; type: biochemical; settings: 25 μM Estradiol, 500 μM NAD; read-out: Inhibition of HSD17B1 IC50
Method in brief: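 Activity followed as NADH formed on estradiol oxidation, read by NADH-Glo luminescence after 1 h detection in the dark at room temperature. Compounds preincubated with enzyme 30 min at room temperature; 0.5% DMSO and no-substrate controls. IC50 fitted from luminescence.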

[1] = Microsome stability assay, mouse liver microsomes; type: in vitro ADME; settings: 1 μM compound, 0.5 mg/mL microsomal protein; for microsomal CLint at 1 h, 1 µM / half-life at 1 h, 1 µM / microsomal CLint at 1 μM / half-life at 1 μM: mouse, mouse liver microsomes, pooled, NADPH, 37° C.; for microsomal CLint at 1 h, 1 µM / microsomal CLint at 1 μM: read-out: Microsome Stability Mouse liver microsomes Cl; for half-life at 1 h, 1 µM / half-life at 1 μM: read-out: Microsome Stability Mouse liver microsomes T½
Method in brief: (§1)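 Compound at 1 μM incubated at 37° C with pooled human or mouse liver microsomes (0.5 mg/mL protein) plus NADPH regenerating system, sampled at 0–60 min; a 60-min no-NADPH incubation also included. Single replicate; LC/MS/MS disappearance from analyte/internal standard peak area ratios, without standard curve.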

[2] = Microsome stability assay, human liver microsomes; type: in vitro ADME; settings: 1 μM compound, 0.5 mg/mL microsomal protein
Method in brief: as §1

[3] = human, human liver microsomes, pooled, NADPH, 37° C., read-out: Microsome Stability Human liver microsomes Cl
[4] = human, human liver microsomes, pooled, NADPH, 37° C., read-out: Microsome Stability Human liver microsomes T½

Chain of HSD17B13 (Q7Z5P4 other isoform, or with tags, fused parts or gaps): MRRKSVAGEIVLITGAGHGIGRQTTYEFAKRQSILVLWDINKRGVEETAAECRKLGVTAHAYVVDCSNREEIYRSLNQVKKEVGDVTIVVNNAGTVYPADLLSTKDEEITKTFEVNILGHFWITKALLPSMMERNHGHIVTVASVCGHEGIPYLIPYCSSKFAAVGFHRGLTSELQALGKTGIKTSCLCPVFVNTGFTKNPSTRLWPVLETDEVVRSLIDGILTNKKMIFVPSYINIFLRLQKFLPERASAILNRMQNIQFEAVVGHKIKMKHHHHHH
Chain of HSD17B1 (P14061 other isoform, or with tags, fused parts or gaps): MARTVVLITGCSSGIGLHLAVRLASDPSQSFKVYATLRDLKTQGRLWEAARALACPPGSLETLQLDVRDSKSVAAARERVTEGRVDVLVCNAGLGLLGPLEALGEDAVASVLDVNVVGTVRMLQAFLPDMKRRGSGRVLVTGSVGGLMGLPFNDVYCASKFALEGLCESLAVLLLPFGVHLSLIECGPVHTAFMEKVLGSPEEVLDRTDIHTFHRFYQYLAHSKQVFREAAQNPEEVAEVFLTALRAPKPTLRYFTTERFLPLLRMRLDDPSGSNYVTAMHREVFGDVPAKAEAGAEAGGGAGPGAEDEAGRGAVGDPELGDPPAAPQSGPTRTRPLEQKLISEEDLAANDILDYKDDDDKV
Chain of HSD17B2 (P37059 other isoform, or with tags, fused parts or gaps): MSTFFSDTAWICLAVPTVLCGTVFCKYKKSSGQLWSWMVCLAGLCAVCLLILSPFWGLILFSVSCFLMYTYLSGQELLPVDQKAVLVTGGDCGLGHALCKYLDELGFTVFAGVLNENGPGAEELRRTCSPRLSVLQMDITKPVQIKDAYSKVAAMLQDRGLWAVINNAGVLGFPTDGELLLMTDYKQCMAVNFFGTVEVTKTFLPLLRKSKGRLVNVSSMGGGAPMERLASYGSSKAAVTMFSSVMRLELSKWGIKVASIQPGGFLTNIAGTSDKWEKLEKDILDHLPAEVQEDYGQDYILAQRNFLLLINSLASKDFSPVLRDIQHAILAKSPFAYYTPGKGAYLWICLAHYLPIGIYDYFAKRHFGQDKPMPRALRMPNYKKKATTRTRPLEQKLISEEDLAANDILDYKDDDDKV

SMILES	IC50 (HSD17B2)	IC50 (HSD17B13)	IC50 (HSD17B1)	Microsome Stability Mouse liver microsomes % Remaining @60 min [1]	microsomal CLint at 1 h, 1 µM [1]	half-life at 1 h, 1 µM [1]	Microsome Stability Human liver microsomes % Remaining @60 min [2]	microsomal CLint at 1 h, 1 µM [2, 3]	half-life at 1 h, 1 µM [2, 4]	microsomal CLint at 1 μM [1]	half-life at 1 μM [1]	microsomal CLint at 1 μM [2, 3]	half-life at 1 μM [2, 4]
COc1ccc2c(c1)Sc1ccccc1C2NC(=O)c1ccc(C(F)F)[nH]c1=O (stereo not drawn) [Compound 272, 6-(difluoromethyl)-N-(3-methoxy-9H-thioxanthen-9-yl)-2-oxo-1,2-dihydropyridine-3-carboxamide]	29.7 µM	0.43 µM	> 30 µM	13.10%	68.2 µL/min/mg	20.3 min	73.40%	12.1 µL/min/mg	114 min	–	–	–	–
CCCC1CCc2cc(OC)ccc2C1NC(=O)c1ccc(C(F)(F)F)[nH]c1=O (stereo not drawn) [Compound 289, N-(6-methoxy-2-propyl-1,2,3,4-tetrahydronaphthalen-1-yl)-2-oxo-6-(trifluoromethyl)-1,2-dihydropyridine-3-carboxamide]	29.4 µM	0.08 µM	> 30 µM	22.70%	47 µL/min/mg	29.5 min	14.90%	59.9 µL/min/mg	23.1 min	–	–	–	–
CCC1Cc2cc(C)ccc2C1NC(=O)c1ccc(C(F)(F)F)[nH]c1=O (stereo not drawn) [Compound 298, N-(2-ethyl-5-methyl-2,3-dihydro-1H-inden-1-yl)-2-oxo-6-(trifluoromethyl)-1,2-dihydropyridine-3-carboxamide]	30.9 µM	0.06 µM	> 30 µM	26.50%	45.1 µL/min/mg	30.7 min	1%	450 µL/min/mg	3.08 min	–	–	–	–
CCC1CCc2cc(OC)ccc2C1NC(=O)c1ccc(C(F)(F)F)[nH]c1=O (stereo not drawn) [Compound 299, N-(2-ethyl-6-methoxy-1,2,3,4-tetrahydronaphthalen-1-yl)-2-oxo-6-(trifluoromethyl)-1,2-dihydropyridine-3-carboxamide]	22.6 µM	0.1 µM	> 30 µM	43.50%	27.4 µL/min/mg	50.6 min	11%	66.8 µL/min/mg	20.8 min	–	–	–	–
Cc1ccc2c(c1)Sc1cc(C)ccc1C2NC(=O)c1cc(-c2ccccc2)c(C(F)(F)F)[nH]c1=O [Compound 306, N-(3,6-dimethyl-9H-thioxanthen-9-yl)-2-oxo-5-phenyl-6-(trifluoromethyl)-1,2-dihydropyridine-3-carboxamide]	17.3 µM	0.03 µM	7.47 µM	70.90%	9.6 µL/min/mg	144 min	12.80%	72.9 µL/min/mg	19 min	–	–	–	–
CCC1Cc2cc(C)ccc2C(NC(=O)c2ccc(C(F)(F)F)[nH]c2=O)C1 (stereo not drawn) [Compound 388, N-(3-ethyl-6-methyl-1,2,3,4-tetrahydronaphthalen-1-yl)-2-oxo-6-(trifluoromethyl)-1,2-dihydropyridine-3-carboxamide]	25.8 µM	0.05 µM	> 30 µM	24.60%	47.4 µL/min/mg	29.2 min	10%	150 µL/min/mg	9.26 min	–	–	–	–

More lines, now with the values ahead:

IC50 (HSD17B2)	IC50 (HSD17B13)	IC50 (HSD17B1)	Microsome Stability Mouse liver microsomes % Remaining @60 min [1]	microsomal CLint at 1 h, 1 µM [1]	half-life at 1 h, 1 µM [1]	Microsome Stability Human liver microsomes % Remaining @60 min [2]	microsomal CLint at 1 h, 1 µM [2, 3]	half-life at 1 h, 1 µM [2, 4]	microsomal CLint at 1 μM [1]	half-life at 1 μM [1]	microsomal CLint at 1 μM [2, 3]	half-life at 1 μM [2, 4]	SMILES
8.98 µM	0.01 µM	2.73 µM	96.20%	–	–	0.85%	154 µL/min/mg	9 min	< 9.6 µL/min/mg	> 145 min	–	–	Cc1ccc2c(c1)Sc1cc(C)ccc1C2NC(=O)c1cc(-c2ccccn2)c(C(F)(F)F)[nH]c1=O [Compound 307, N-(3,6-dimethyl-9H-thioxanthen-9-yl)-6′-oxo-2′-(trifluoromethyl)-1′,6′ dihydro-[2,3′-bipyridine]-5′-carboxamide]
> 100 µM	0.19 µM	> 30 µM	105%	–	–	67.80%	10.5 µL/min/mg	132 min	< 9.6 µL/min/mg	> 145 min	–	–	Cc1ccc2c(c1)[C@H](O)CC[C@H]2NC(=O)c1ccc(C(F)(F)F)[nH]c1=O [Compound 311, N-((1R,4R)-4-hydroxy-6-methyl-1,2,3,4-tetrahydronaphthalen-1-yl)-2-oxo-6-(trifluoromethyl)-1,2-dihydropyridine-3-carboxamide]
> 100 µM	0.38 µM	21.4 µM	46%	24.6 µL/min/mg	56.3 min	62%	15.8 µL/min/mg	87.7 min	–	–	–	–	COc1ccc2c(c1)Oc1cnccc1C2NC(=O)c1ccc(C(F)(F)F)[nH]c1=O (stereo not drawn) [Compound 327, N-(8-methoxy-5H-chromeno[2,3-c]pyridin-5-yl)-2-oxo-6-(trifluoromethyl)-1,2-dihydropyridine-3-carboxamide]
65.4 µM	0.51 µM	> 30 µM	83.70%	–	–	0.73%	157 µL/min/mg	8.84 min	< 9.6 µL/min/mg	> 145 min	–	–	COC1Cc2cc(C)ccc2C1NC(=O)c1ccc(C(F)(F)F)[nH]c1=O (stereo not drawn) [Compound 351, N-(2-methoxy-5-methyl-2,3-dihydro-1H-inden-1-yl)-2-oxo-6-(trifluoromethyl)-1,2-dihydropyridine-3-carboxamide]
> 100 µM	0.7 µM	> 30 µM	88.70%	–	–	5.86%	93.5 µL/min/mg	14.8 min	< 9.6 µL/min/mg	> 145 min	–	–	COc1ccc2c(c1)CC(OC)C2NC(=O)c1ccc(C(F)(F)F)[nH]c1=O (stereo not drawn) [Compound 352, N-(2,5-dimethoxy-2,3-dihydro-1H-inden-1-yl)-2-oxo-6-(trifluoromethyl)-1,2-dihydropyridine-3-carboxamide]
23.1 µM	0.59 µM	> 30 µM	36.20%	32.8 µL/min/mg	42.2 min	1%	318 µL/min/mg	4.36 min	–	–	–	–	CC[C@@H]1Oc2cc(C)ccc2[C@H]1NC(=O)c1ccc(C(F)(F)F)[nH]c1=O [Compound 360, N-((2S,3R)-2-ethyl-6-methyl-2,3-dihydrobenzofuran-3-yl)-2-oxo-6-(trifluoromethyl)-1,2-dihydropyridine-3-carboxamide]
27.5 µM	0.08 µM	> 30 µM	70%	–	–	58.50%	–	–	12.1 µL/min/mg	114 min	15.3 µL/min/mg	90.7 min	CCC[C@H]1C[C@@H](NC(=O)c2ccc(C(F)(F)F)[nH]c2=O)c2cc(C)ccc2N1 [Compound 362, N-((2S,4R)-6-methyl-2-propyl-1,2,3,4-tetrahydroquinolin-4-yl)-2-oxo-6-(trifluoromethyl)-1,2-dihydropyridine-3-carboxamide]
27.7 µM	0.05 µM	> 30 µM	21.60%	52 µL/min/mg	26.6 min	2.70%	112 µL/min/mg	12.3 min	–	–	–	–	CCCC1Cc2cc(C)ccc2C(NC(=O)c2ccc(C(F)(F)F)[nH]c2=O)C1 (stereo not drawn) [Compound 387, N-(6-methyl-3-propyl-1,2,3,4-tetrahydronaphthalen-1-yl)-2-oxo-6-(trifluoromethyl)-1,2-dihydropyridine-3-carboxamide]
